Here are results for four molecules from patent US8658383B2, “Sweet taste receptor-expressing construct, cell body expressing the same, and utilization thereof” (T. Hasegawa Co., Ltd., priority 2009, dated 2014).

Each structure is given as a SMILES string.

Assay [1] addresses T1, human sweet taste receptor (hT1R2+hT1R3) (Homo sapiens, UniProt Q7RTX0+Q8TE23).
T1 sequence (Q8TE23 20-839): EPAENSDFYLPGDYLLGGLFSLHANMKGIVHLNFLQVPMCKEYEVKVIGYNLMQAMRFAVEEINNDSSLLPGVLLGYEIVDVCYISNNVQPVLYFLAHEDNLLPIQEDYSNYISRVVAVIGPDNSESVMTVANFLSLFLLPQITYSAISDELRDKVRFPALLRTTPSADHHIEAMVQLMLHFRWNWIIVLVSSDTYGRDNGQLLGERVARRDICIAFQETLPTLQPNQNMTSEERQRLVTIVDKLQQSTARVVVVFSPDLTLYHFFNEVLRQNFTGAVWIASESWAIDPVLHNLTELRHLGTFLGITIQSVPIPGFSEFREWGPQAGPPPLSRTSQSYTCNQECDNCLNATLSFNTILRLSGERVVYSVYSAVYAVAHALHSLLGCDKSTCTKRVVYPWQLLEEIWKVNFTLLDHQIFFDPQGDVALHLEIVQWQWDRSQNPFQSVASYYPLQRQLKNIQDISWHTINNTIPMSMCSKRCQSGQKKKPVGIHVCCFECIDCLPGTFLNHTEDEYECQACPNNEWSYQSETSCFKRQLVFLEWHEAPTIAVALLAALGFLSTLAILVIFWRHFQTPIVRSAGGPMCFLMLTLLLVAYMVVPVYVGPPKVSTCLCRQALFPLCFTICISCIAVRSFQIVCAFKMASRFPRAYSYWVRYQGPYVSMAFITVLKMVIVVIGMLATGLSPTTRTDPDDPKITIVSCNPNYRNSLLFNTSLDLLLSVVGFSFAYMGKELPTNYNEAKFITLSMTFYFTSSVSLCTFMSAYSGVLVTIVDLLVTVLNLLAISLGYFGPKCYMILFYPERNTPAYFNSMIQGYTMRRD
T1 sequence (Q7RTX0 21-852): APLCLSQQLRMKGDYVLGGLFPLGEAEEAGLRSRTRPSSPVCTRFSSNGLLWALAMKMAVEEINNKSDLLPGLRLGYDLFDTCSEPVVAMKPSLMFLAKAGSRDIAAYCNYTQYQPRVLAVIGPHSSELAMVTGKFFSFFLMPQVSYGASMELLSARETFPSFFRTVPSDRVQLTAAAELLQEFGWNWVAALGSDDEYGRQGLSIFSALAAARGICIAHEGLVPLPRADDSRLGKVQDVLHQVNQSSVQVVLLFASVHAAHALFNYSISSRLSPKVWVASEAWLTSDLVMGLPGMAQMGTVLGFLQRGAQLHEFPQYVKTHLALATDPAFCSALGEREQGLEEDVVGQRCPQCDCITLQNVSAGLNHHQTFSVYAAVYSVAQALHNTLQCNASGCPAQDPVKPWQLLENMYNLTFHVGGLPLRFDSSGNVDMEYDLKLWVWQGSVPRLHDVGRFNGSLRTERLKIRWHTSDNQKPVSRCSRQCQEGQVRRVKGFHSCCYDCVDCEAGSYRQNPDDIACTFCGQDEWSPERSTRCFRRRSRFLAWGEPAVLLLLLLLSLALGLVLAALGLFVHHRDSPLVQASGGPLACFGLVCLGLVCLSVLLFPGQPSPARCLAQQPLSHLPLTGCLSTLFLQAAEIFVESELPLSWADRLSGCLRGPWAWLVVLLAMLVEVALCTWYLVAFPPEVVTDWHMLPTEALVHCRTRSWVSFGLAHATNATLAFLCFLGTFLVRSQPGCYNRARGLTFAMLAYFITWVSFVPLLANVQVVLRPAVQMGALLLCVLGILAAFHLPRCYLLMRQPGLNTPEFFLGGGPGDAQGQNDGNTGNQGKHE
As to the kind of experiment: Automated fluorescent calcium imaging (Fluo-4 AM, FlexStation 3) of cultured cell strain (A). It counts as cell-based. More on the design: The sweet taste receptor subunits T1R2 and T1R3 include an entire part of each subunit. The protocol: Automated fluorescent imaging using FlexStation 3 (Molecular Devices) can be performed, for example, according to the following procedure.
First, cells are suspended in a low glucose ([…]) DMEM medium from which hygromycin B has been removed, and each 70 to 80 thousands of cells are seeded on each well of a 96-well plate (Corning, CellBIND Surface).
Then, after cultured at 37° C. for 24 hours, a medium is removed and replaced with a suitable amount of a HEPES (2-[4-(2-hydroxyethyl)-1-piperazinyl]ethanesulfonic acid) buffer, and a HEPES buffer containing a fluorescent calcium indicator (Fluo-4 AM attached to Molecular Devices, FLIPR Ca 4 Assay Kit) is further added. In order to facilitate transfer into cells, a fat-soluble acetoxymethyl group has been introduced into the fluorescent indicator Fluo-4 (excitation wavelength: 495 nm, fluorescent wavelength: 518 nm), and when it is added to a medium, it is easily taken into cells, and is hydrolyzed with an esterase in cells. Hydrolyzed Fluo-4 becomes difficult to be permeated through a cell membrane, and is diffused into cells to form a complex with calcium, emitting intense fluorescence. In a 96-well plate for fluorescent observation, there are a plastic bottom and a film bottom. Since a plate of the plastic bottom is satisfactory in adherability and growth of cells, it is used at a simultaneous assay using a multiplate reader for observing an entire well. However, since a plate of this plastic bottom is bad in transmission property of a UV wavelength, and inhibits transmission of excited light of Fura-2, Fluo-4 is used.
Then, after incubated at 27 to 37° C. for 30 to 60 minutes, by adding thereto a sweet taste substance at a particular concentration or a solution of a sweet taste substance and a substance to be tested, taste stimulation is performed at 27 to 37° C.
A physiological response of the cultured cell strain (A) to sucrose stimulation was analyzed by automated fluorescent imaging.
The cultured cell strain (A) prepared in Example 4 was trypsinized, and suspended in the DMEM medium, a cell density was measured, and each about 80 thousand cells were seeded on each well of a 96-well plate (Corning, CellBIND Surface).
After cultured at 37° C. for 24 hours, the medium was removed and replaced with 50 μl of a HEPES buffer, and 50 μl of a HEPES buffer containing a fluorescent calcium indicator (Fluo-4 AM attached to Molecular Devices, FLIPR Ca 4 Assay Kit) was further added. Then, this was incubated at 27° C. for 45 minutes to prepare cells to be subjected to automated fluorescent imaging.
Then, to the cells was added a HEPES buffer containing sucrose, so that a final concentration of sucrose became a concentration described in Table 1, and sucrose stimulation was performed at 27° C.
The vertical axis of FIG. 15 is a maximum of change (AF) in a fluorescent intensity between immediately after stimulation and 100 seconds after stimulation, that is, a response intensity of cells, and the horizontal axis indicates a sucrose concentration (mM) expressed by logarithm.
A physiological response of the cultured cell strain (A) to D-phenylalanine stimulation was analyzed by automated fluorescent imaging.

Assay [2] addresses T1, human sweet taste receptor (hT1R2+hT1R3). As to the kind of experiment: Fluorescent microscope calcium imaging (Fura-2 AM) of cultured cell strains (A) to (C). Conditions: cultured cell strain (A); Sucrose in a range of 20 mM to 1 M; FIG. 13.
Procedure: Fluorescent calcium imaging using a fluorescent microscope can be performed according to the following procedure.
First, cells are suspended in a low glucose (1,000 mg/ml) DMEM medium, from which hygromycin B has been removed, and each 40 to 80 thousands cells are seeded on each well of a 96-well plate (Greiner, Lumox).
Then, after cultured at 37° C. for 24 to 48 hours, a medium is removed and is replaced with a suitable amount of a HEPES buffer, and a HEPES buffer containing a fluorescent calcium indicator (Fura-2 AM) is further added.
After incubated at 27 to 37° C. for 30 to 60 minutes, an extracellular fluorescent indicator is removed, and this is finally replaced with a suitable amount of a HEPES buffer, and is allowed to stand at room temperature for 10 to 20 minutes. By adding thereto a sweet taste substance at a particular concentration or a solution of a sweet taste substance and a substance to be tested, taste stimulation is performed at room temperature. In the fluorescent indicator Fura-2 (excitation wavelength: 340 nm/380 nm, fluorescent wavelength: 510 nm), a fluorescent intensity of excitation at 340 nm is increased, and a fluorescent intensity of excitation at 380 nm is reduced, when a calcium ion concentration is increased.
Cells loaded with Fura-2 AM were excited at 340 nm and 380 nm, and a fluorescent image observed at 510 nm was taken using a fluorescent microscope and a CCD camera. While the image was taken, Aspartame at a final concentration of 10 mM was administered to cells and, thereafter, the image was continuously taken. From the field of the taken image, 100 cells were randomly selected, and the response cell number was counted.
Cells loaded with Fura-2 AM were excited at 340 nm and 380 nm, and a fluorescent image observed at 510 nm was taken using a fluorescent microscope and a CCD camera. While the image was taken, Aspartame at each final concentration of 0.1 mM, 0.5 mM, 1 mM, 2 mM and 5 mM was administered to cells and then the image was continuously taken.
Cells loaded with Fura-2 AM were excited at 340 nm and 380 nm, and a fluorescent image observed at 510 nm was taken by using a fluorescent microscope and a CCD camera. While the image was taken, Sucrose at each final concentration of 20 mM, 50 mM, 100 mM, 200 mM, 500 mM and 1 M was administered to cells and then the image was continuously taken.
Cells loaded with Fura-2 AM were excited at 340 nm and 380 nm, and a fluorescent image observed at 510 nm was taken by using a fluorescent microscope and a CCD camera. While the image was taken, sucrose at final concentration of 500 mM was administered to cells and then the image was continuously taken.
Assay [3] shares this target. In words: Automated fluorescent calcium imaging (Fluo-4 AM, FlexStation 3) of cultured cell strain (A). The format is cell-based. More on the design: The sweet taste receptor subunits T1R2 and T1R3 include an entire part of each subunit. The source holds these as a separate data set.

Consider `N[C@H](Cc1ccccc1)C(=O)O` [D-phenylalanine], for which the “Change amount of fluorescent intensity (ΔF)” value (“Change amount … (ΔF)” for short) in assay [1] (D-phenylalanine 1.5 mM, Average ± S.E., n = 2) turned out to be 4.0 ± 0.8; in assay [1] (D-phenylalanine 2.2 mM, Average ± S.E., n = 2) it was 4.8 ± 0.6; in assay [1] (D-phenylalanine 3.3 mM, Average ± S.E., n = 2) it was 4.5 ± 0.6; in assay [1] (D-phenylalanine 4.9 mM, Average ± S.E., n = 2), 5.4 ± 0.3; in assay [1] (D-phenylalanine 7.4 mM, Average ± S.E., n = 2) it was 8.1 ± 0.7; in assay [1] (D-phenylalanine 11.1 mM, Average ± S.E., n = 2) it was 12.1 ± 0.2. For the same molecule, the “Change amount … (ΔF)” value was found to be 18.2 ± 0.9 in assay [1] (D-phenylalanine 16.7 mM, Average ± S.E., n = 2) and 25.2 ± 1.2 in assay [1] (D-phenylalanine 25 mM, Average ± S.E., n = 2).
Consider `OC[C@H]1O[C@@](CO)(O[C@H]2O[C@H](CO)[C@@H](O)[C@H](O)[C@H]2O)[C@@H](O)[C@@H]1O` [Sucrose, sucrose], for which the “Change amount … (ΔF)” value in assay [1] (sucrose 3.1 mM, Average ± S.E., n = 6) turned out to be 10.8 ± 2.0; in assay [1] (sucrose 6.3 mM, Average ± S.E., n = 6), 13.8 ± 2.9; in assay [1] (sucrose 12.5 mM, Average ± S.E., n = 6), 14.9 ± 2.7; in assay [1] (sucrose 25 mM, Average ± S.E., n = 6), 17.0 ± 2.6; in assay [1] (sucrose 50 mM, Average ± S.E., n = 6), 29.2 ± 2.3; in assay [1] (sucrose 100 mM, Average ± S.E., n = 6), 40.4 ± 2.5. Moreover, the “Change amount … (ΔF)” value in assay [1] (sucrose 200 mM, Average ± S.E., n = 6) was 35.4 ± 3.2. For the same molecule, the “sweet taste response (fluorescent images)” value in assay [2] was “concentration-dependent sweet taste response was observed”.
Take `O=C1NS(=O)(=O)c2ccccc21` [saccharin]: the “Change amount … (ΔF)” value in assay [1] (saccharin 0.04 mM, Average ± S.E., n = 2) was 4.0 ± 0.8; in assay [1] (saccharin 0.08 mM, Average ± S.E., n = 2) it was 8.0 ± 0.6; in assay [1] (saccharin 0.16 mM, Average ± S.E., n = 2) it was 11.1 ± 1.3; in assay [1] (saccharin 0.31 mM, Average ± S.E., n = 2), 18.7 ± 2.4; in assay [1] (saccharin 0.63 mM, Average ± S.E., n = 2), 26.1 ± 4.0; in assay [1] (saccharin 1.25 mM, Average ± S.E., n = 2), 25.7 ± 1.1. The “Change amount … (ΔF)” value in assay [1] (saccharin 2.50 mM, Average ± S.E., n = 2) is recorded as 25.6 ± 0.2; in assay [1] (saccharin 5 mM, Average ± S.E., n = 2) it was 21.8 ± 1.2.
As for `COc1ccc(CCC(=O)c2c(O)cc(O[C@@H]3O[C@H](CO)[C@@H](O)[C@H](O)[C@H]3O[C@@H]3O[C@@H](C)[C@H](O)[C@@H](O)[C@H]3O)cc2O)cc1O` [NHDC, neohesperidin dihydrochalcone], the “Change amount … (ΔF)” value in assay [1] (NHDC 0.003 mM) is 5.8; in assay [1] (NHDC 0.01 mM), 11.2; in assay [3] (NHDC 0.03 mM), 9.6; in assay [3] (NHDC 0.1 mM), 20.9; in assay [3] (NHDC 0.3 mM), 26.7; in assay [3] (NHDC 1 mM), 41.8. For the same molecule, the entries for the “Change amount … (ΔF)” value in assay [3] (NHDC 3 mM) and in assay [3] (NHDC 10 mM) were 66.8 and 78.6, respectively.
